Format in all cases: in vivo
Series [1] has as its system Amaranthus retroflexus. In words: pre-emergence herbicidal action. The following applies: 320 g a.i./ha, scored visually after 3 to 4 weeks vs untreated controls. The text has this:
(§1) Seeds of mono- and dicotyledonous harmful plants are placed in sandy loam in cardboard pots and covered with soil. The compounds according to the invention, which are formulated in the form of wettable powders or emulsion concentrates, are then applied to the surface of the soil cover as aqueous suspension or emulsion at a dosage rate stated in table B1 with an application rate of 600 to 800 l of water per ha (converted). After the treatment, the pots are placed into a greenhouse and kept under good growth conditions for the harmful plants. The damage to the plants or their emergence is scored visually after the test plants have emerged after an experimental time of 3 to 4 weeks by comparison with untreated controls.

In series [2] the test system is Stellaria media. In words: pre-emergence herbicidal action. The following applies: 320 g a.i./ha, scored visually after 3 to 4 weeks vs untreated controls.
Description: as §1

The test system of series [3] is Sinapis arvensis. The series can be described thus: pre-emergence herbicidal action. The following applies: 320 g a.i./ha, scored visually after 3 to 4 weeks vs untreated controls.
Description: as §1

In the next series the test system is Sagittaria pygmaea. The series can be described thus: post-emergence action against harmful plants. As to the method: (§2) Seeds of mono- and dicotyledonous harmful plants are placed in sandy loam in cardboard pots, covered with soil and grown in the greenhouse under good growth conditions. 2 to 3 weeks after sowing, the test plants are treated in the three-leaf stage. The compounds according to the invention, which are formulated as wettable powders or as emulsion concentrates, are sprayed at a dosage rate stated in table B2 to the surface of the green plant parts at an application rate of 600 to 800 l of water per ha (converted). After the test plants have been left to stand in the greenhouse for approx. 3 to 4 weeks under optimal growth conditions, the effect of the compounds is scored by comparison with compounds of the prior art.
(§3) In further greenhouse experiments, seeds of barley and of monocotyledonous and dicotyledonous harmful plants are placed in sandy loam, covered with soil and placed in the greenhouse until the plants have developed two to three true leaves. Then, they are treated with the compounds of the formula (I) according to the invention as described above under item 2.

For the next series, the system named is Cyperus serotinus. The series can be described thus: post-emergence action against harmful plants. As to the method: as §2, §3
The subject of a further series is Monochoria vaginalis. In words: post-emergence action against harmful plants. As to the method: as §2, §3
Series [4] has as its system Amaranthus retroflexus. In words: post-emergence herbicidal action. The following applies: three-leaf stage, 320 g a.i./ha, scored after approx. 3 to 4 weeks. As to the method: as §2
The subject of series [5] is Stellaria media. The series can be described thus: post-emergence herbicidal action. The settings on record: three-leaf stage, 320 g a.i./ha, scored after approx. 3 to 4 weeks. As to the method: as §2
Series [6] has as its system Sinapis arvensis. In words: post-emergence herbicidal action. The settings on record: three-leaf stage, 320 g a.i./ha, scored after approx. 3 to 4 weeks. As to the method:
as §2

The subject of another series is Oryza sativa. The series can be described thus: post-emergence action, crop plant damage.

Molecules are shown by their SMILES.

In the case of `CN(C(=O)COc1c(S(C)(=O)=O)ccc(C(=O)C2=C(O)CCCC2=O)c1Cl)c1ccccc1` [Compound 1.28], the “Action against harmful plants AMARE” value in the series on Amaranthus retroflexus [1] was 90%. Further, in the series with Stellaria media [2], the “Action against harmful plants STEME” value is 90%. The “Action against harmful plants SINAL” value in the series with Sinapis arvensis [3] came to 90%.
Turning to `CCN(CC)C(=O)COc1c(Cl)ccc(C(=O)C2=C(O)CCCC2=O)c1Cl` [Compound 3.9], in the series with Sagittaria pygmaea (90 g a.i./ha), the “Action against harmful plants SAGPY” value came out at 90%. In the series on Cyperus serotinus (90 g a.i./ha), the “Action against harmful plants CYPSE” value is given as 95%. For the same compound, the “Action against harmful plants MOOVA” value in the series with Monochoria vaginalis (90 g a.i./ha) worked out at 95%. Besides, the “Action against harmful plants AMARE” value in the series on Amaranthus retroflexus [1] is 90%; with Amaranthus retroflexus [4], 80%. Also, the “Action against harmful plants STEME” value in the series on Stellaria media [2] is on record as 90%; in the series on Stellaria media [5], 100%. For the same compound, the “Action against harmful plants SINAL” value with Sinapis arvensis [3] is 80%; in the series with Sinapis arvensis [6] it was 90%. Moreover, the “Crop plant damage ORYSP” value in the series on Oryza sativa (90 g a.i./ha) was 0%.
Consider `CCN(CC)C(=O)COc1c(Br)ccc(C(=O)C2=C(O)CCCC2=O)c1Br` [Compound 3.65], for which, in the series with Sagittaria pygmaea (50 g a.i./ha), the “Action against harmful plants SAGPY” value stood at 80%. Moreover, in the series on Cyperus serotinus (50 g a.i./ha), the “Action against harmful plants CYPSE” value turned out to be 99%. Besides, in the series with Monochoria vaginalis (50 g a.i./ha), the “Action against harmful plants MOOVA” value came out at 99%. The “Action against harmful plants AMARE” value stood at 90% in the series on Amaranthus retroflexus [1] and 80% in the series with Amaranthus retroflexus [4]. Further, the “Action against harmful plants STEME” value in the series on Stellaria media [2] stood at 90%; in the series on Stellaria media [5] it was 100%. Moreover, the “Action against harmful plants SINAL” value in the series on Sinapis arvensis [3] stood at 80%; with Sinapis arvensis [6], 90%. The “Crop plant damage ORYSP” value in the series on Oryza sativa (50 g a.i./ha) is reported as 0%.

(Values after patent US6774086B2, “3-Aminocarbonyl-substituted benzoylcyclohexanediones” (Bayer CropScience GmbH, priority 2001, dated 2004).)
